Test results taken from patent US12129246B1, “Hydroquinazoline derivatives for the treatment of a disease or disorder” (Novartis AG, priority 2023, dated 2024).
Like-named read-outs stand apart in the source and are kept apart here.

What was measured:
monkey NPR1 = monkey NPR1 (Macaca fascicularis, UniProt A0A7N9DBT9); assay: Cellular cGMP production assay, monkey NPR1 expressing CHO-K1 cells (CisBio HTRF); type: cell-based; conditions: for Monkey NPR1 Amax (% of ANP): maximum cGMP production as percentage of the maximum cGMP produced with ANP
Sequence of monkey NPR1 (A0A7N9DBT9 entry or part of it): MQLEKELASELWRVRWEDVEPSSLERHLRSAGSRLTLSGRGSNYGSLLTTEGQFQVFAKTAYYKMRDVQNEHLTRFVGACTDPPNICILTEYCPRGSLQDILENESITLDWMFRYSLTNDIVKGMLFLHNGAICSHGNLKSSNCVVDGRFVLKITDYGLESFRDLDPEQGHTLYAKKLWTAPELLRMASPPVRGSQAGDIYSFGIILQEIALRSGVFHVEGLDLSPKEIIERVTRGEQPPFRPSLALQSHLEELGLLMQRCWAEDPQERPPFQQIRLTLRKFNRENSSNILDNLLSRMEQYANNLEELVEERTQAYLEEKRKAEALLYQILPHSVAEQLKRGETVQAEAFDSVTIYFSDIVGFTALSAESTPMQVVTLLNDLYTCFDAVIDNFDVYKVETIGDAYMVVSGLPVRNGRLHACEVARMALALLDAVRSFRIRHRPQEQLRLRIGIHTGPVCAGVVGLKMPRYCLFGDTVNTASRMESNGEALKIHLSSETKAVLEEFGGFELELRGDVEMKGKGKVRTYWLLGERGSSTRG
Summary of the method: (§1)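 Cells receive IBMX (1 mM) assay buffer plus test compound over twelve threefold dilutions starting at 30 μM, and cGMP accumulates for 30 min at 37 °C. Lysates are then incubated one hour at room temperature with d2-labelled cGMP and cryptate-labelled antibody before time-resolved fluorescence reading.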

human NPR1 = molecular target: T1, human NPR1 (Homo sapiens, UniProt P16066); assay: Cellular cGMP production assay, human NPR1 expressing CHO-K1 cells (CisBio HTRF); type: cell-based; conditions: for AC50: cGMP production, 30 min at 37° C., 12-point dose-response from 30 μM; for Human NPR1 Amax (% of ANP): maximum cGMP production as percentage of the maximum cGMP produced with ANP
T1 construct: host or cells: CHO-K1
T1 sequence (P16066 33-1061): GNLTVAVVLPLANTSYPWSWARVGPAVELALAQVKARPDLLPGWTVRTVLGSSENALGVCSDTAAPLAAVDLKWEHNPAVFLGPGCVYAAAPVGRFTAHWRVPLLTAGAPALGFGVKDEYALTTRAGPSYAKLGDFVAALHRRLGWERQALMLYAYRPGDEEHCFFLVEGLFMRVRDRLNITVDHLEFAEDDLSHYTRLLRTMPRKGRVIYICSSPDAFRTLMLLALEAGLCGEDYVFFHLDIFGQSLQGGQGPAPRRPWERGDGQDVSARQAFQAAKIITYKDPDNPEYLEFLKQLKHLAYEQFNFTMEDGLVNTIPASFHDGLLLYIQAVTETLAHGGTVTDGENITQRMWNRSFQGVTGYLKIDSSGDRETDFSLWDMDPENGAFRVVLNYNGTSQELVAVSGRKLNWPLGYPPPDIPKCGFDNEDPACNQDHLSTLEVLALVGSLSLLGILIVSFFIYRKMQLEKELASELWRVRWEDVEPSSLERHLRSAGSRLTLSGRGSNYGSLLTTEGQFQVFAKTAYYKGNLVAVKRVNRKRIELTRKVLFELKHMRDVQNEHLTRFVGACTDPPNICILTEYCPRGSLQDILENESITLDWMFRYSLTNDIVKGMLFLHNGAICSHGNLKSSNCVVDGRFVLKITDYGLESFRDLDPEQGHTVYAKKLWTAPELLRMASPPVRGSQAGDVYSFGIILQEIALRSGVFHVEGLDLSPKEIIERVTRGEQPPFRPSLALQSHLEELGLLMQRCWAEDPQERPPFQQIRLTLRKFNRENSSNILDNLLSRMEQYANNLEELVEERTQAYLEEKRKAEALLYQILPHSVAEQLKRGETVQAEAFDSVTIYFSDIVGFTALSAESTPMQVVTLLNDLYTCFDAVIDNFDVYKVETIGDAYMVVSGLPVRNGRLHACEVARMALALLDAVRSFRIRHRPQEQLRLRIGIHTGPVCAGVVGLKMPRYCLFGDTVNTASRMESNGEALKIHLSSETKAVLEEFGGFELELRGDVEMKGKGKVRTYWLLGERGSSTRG
Summary of the method: as §1

[1] = cGMP production, monkey NPR1 CHO-K1 cells, 30 min at 37° C., 12-point dose-response from 30 μM, read-out: Monkey NPR1 AC50

| SMILES | AC50 (monkey NPR1; [1]) [nM] | Monkey NPR1 Amax (% of ANP) (monkey NPR1; monkey NPR1 CHO-K1 cells) | AC50 (human NPR1) [nM] | Human NPR1 Amax (% of ANP) (human NPR1) | AC50 (monkey NPR1) [nM] |
| --- | --- | --- | --- | --- | --- |
| CC[C@@H](Nc1nc2c(c(N[C@@H](CN3CC4CCC3C4)c3cnn(C)c3)n1)C[C@H](c1ccccc1)CC2)[C@H]1CC[C@H](C(=O)O)CC1 (stereo partly drawn) [Compound 58, (1R,4r)-4-((1R)-1-(((6R)-4-(((1R)-2-(2-azabicyclo[2.2.1]heptan-2-yl)-1-(1-methyl-1H-pyrazol-4-yl)ethyl)amino)-6-phenyl-5,6,7,8-tetrahydroquinazolin-2-yl)amino)propyl)cyclohexane-1-carboxylic acid] | 149 | 95.422 % of ANP | 201 | 99.715 % of ANP |  |
| CC[C@@H](N(C)c1nc2c(c(N[C@@H](CN3CCC[C@H](C)C3)c3cc(C)nn3C)n1)C[C@H](c1ccccc1)CC2)C12CC(C(=O)O)(C1)C2 [Compound 140, 3-(1-(((R)-4-(((S)-1-(1,3-dimethyl-1H-pyrazol-5-yl)-2-((S)-3-methylpiperidin-1-yl)ethyl)amino)-6-phenyl-5,6,7,8-tetrahydroquinazolin-2-yl)(methyl)amino)-1l3-propyl)bicyclo[1.1.1]pentane-1-carboxylic acid] | 499 | 96.883 % of ANP | 885 | 89.152 % of ANP |  |
| CC[C@H]([C@H]1CC[C@H](C(=O)O)CC1)N(C)c1nc2c(c(N[C@@H](CN3CCC[C@H](C)C3)c3cnn(C)c3)n1)C[C@@H](c1ccccc1)CC2 [Compound 101, (1R,4r)-4-((R)-1-(methyl((S)-4-(((R)-1-(1-methyl-1H-pyrazol-4-yl)-2-((S)-3-methylpiperidin-1-yl)ethyl)amino)-6-phenyl-5,6,7,8-tetrahydroquinazolin-2-yl)amino)propyl)cyclohexane-1-carboxylic acid] | 335 | 101.476 % of ANP | 377 | 93.777 % of ANP |  |
| CC[C@@H](Nc1nc2c(c(N[C@@H](CN3CCCC(F)(F)CC3)c3cnn(CC)c3)n1)C[C@H](c1ccccc1)CC2)[C@H]1CC[C@H](C(=O)O)CC1 [Compound 137, (1R,4r)-4-((R)-1-(((R)-4-(((R)-2-(4,4-difluoroazepan-1-yl)-1-(1-ethyl-1H-pyrazol-4-yl)ethyl)amino)-6-phenyl-5,6,7,8-tetrahydroquinazolin-2-yl)amino)propyl)cyclohexane-1-carboxylic acid] | 379 | 99.351 % of ANP | 840 | 95.603 % of ANP |  |
| CC[C@@H](Nc1nc2c(c(N[C@@H](CN3C4CCCC3CCC4)c3ccccc3)n1)C[C@H](c1ccccc1)CC2)[C@H]1CC[C@H](C(=O)O)CC1 [Compound 108, (1R,4r)-4-((R)-1-(((R)-4-(((R)-2-((1S,5S)-9-azabicyclo[3.3.1]nonan-9-yl)-1-phenylethyl)amino)-6-phenyl-5,6,7,8-tetrahydroquinazolin-2-yl)amino)propyl)cyclohexane-1-carboxylic acid] |  | 99.706 % of ANP | 410 | 93.072 % of ANP | 248 |
| CC[C@@H](Nc1nc2c(c(N[C@H](CN3CCC[C@H](C)C3)c3cnn(C)c3)n1)C[C@](C)(c1cccc(F)c1)CC2)[C@H]1CC[C@H](C(=O)O)CC1 (stereo in doubt) [Compound 130, (1S,4r)-4-((S)-1-(((S)-6-(3-fluorophenyl)-6-methyl-4-(((R)-1-(1-methyl-1H-pyrazol-4-yl)-2-((R)-3-methylpiperidin-1-yl)ethyl)amino)-5,6,7,8-tetrahydroquinazolin-2-yl)amino)propyl)cyclohexane-1-carboxylic acid] | 205 | 114.798 % of ANP | 671 | 88.663 % of ANP |  |
| CC[C@H]([C@H]1CC[C@H](C(=O)O)CC1)N(C)c1nc2c(c(N[C@@H](CN3CCC[C@H](O)C3)c3cnn(CC)c3)n1)C[C@H](c1cccc(F)c1)CC2 [Compound 163, (1R,4r)-4-((R)-1-(((R)-4-(((R)-1-(1-ethyl-1H-pyrazol-4-yl)-2-((S)-3-hydroxypiperidin-1-yl)ethyl)amino)-6-(3-fluorophenyl)-5,6,7,8-tetrahydroquinazolin-2-yl)(methyl)amino)propyl)cyclohexane-1-carboxylic acid] | 1270 | 102.145 % of ANP | 1710 | 103.903 % of ANP |  |
| CC[C@H](N(C)c1nc2c(c(N[C@@H](CN3CCC[C@H](CF)C3)c3cnn(C)c3)n1)C[C@](C)(c1ccccc1)CC2)C12CC(C(=O)O)(C1)C2 [Compound 43, 3-((S)-1-(((R)-4-(((R)-2-((S)-3-(fluoromethyl)piperidin-1-yl)-1-(1-methyl-1H-pyrazol-4-yl)ethyl)amino)-6-methyl-6-phenyl-5,6,7,8-tetrahydroquinazolin-2-yl)(methyl)amino)propyl)bicyclo[1.1.1]pentane-1-carboxylic acid] | 158 | 104.036 % of ANP | 170 | 101.178 % of ANP |  |
| CC[C@@H](N(C)c1nc2c(c(N[C@@H](CN3C4CCCC3CC4)c3scnc3C)n1)C[C@H](c1cccc(F)c1)CC2)C12CC(C(=O)O)(C1)C2 [Compound 113, 3-((1R)-1-(((6R)-4-(((1S)-2-(8-azabicyclo[3.2.1]octan-8-yl)-1-(4-methylthiazol-5-yl)ethyl)amino)-6-(3-fluorophenyl)-5,6,7,8-tetrahydroquinazolin-2-yl)(methyl)amino)propyl)bicyclo[1.1.1]pentane-1-carboxylic acid] |  | 99.894 % of ANP | 438 | 98.462 % of ANP | 460 |
| CCC(N(C)c1nc2c(c(N[C@@H](CN3C4CCCC3CCC4)c3cnn(C)c3)n1)C[C@H](c1ccccc1)CC2)C12CC(C(=O)O)(C1)C2 (stereo partly drawn) [Compound 74, 3-(1-(((R)-4-(((R)-2-((1S,5S)-9-azabicyclo[3.3.1]nonan-9-yl)-1-(1-methyl-1H-pyrazol-4-yl)ethyl)amino)-6-phenyl-5,6,7,8-tetrahydroquinazolin-2-yl)(methyl)amino)-1l3-propyl)bicyclo[1.1.1]pentane-1-carboxylic acid] |  | 117.270 % of ANP | 246 | 102.182 % of ANP | 167 |
| CC[C@H]([C@H]1CC[C@H](C(=O)O)CC1)N(C)c1nc2c(c(N[C@@H](CN3C4CCCC3CCC4)c3cnn(CC)c3)n1)C[C@@H](c1cccc(F)c1)CC2 [Compound 52, (1R,4r)-4-((R)-1-(((S)-4-(((R)-2-((1S,5S)-9-azabicyclo[3.3.1]nonan-9-yl)-1-(1-ethyl-1H-pyrazol-4-yl)ethyl)amino)-6-(3-fluorophenyl)-5,6,7,8-tetrahydroquinazolin-2-yl)(methyl)amino)propyl)cyclohexane-1-carboxylic acid] |  | 106.496 % of ANP | 188 | 97.880 % of ANP | 167 |
| CC[C@H]([C@H]1CC[C@H](C(=O)O)CC1)N(C)c1nc2c(c(N[C@@H](CN3C4CCCC3CCC4)c3cnn(C)c3)n1)C[C@H](c1ccccc1)CC2 [Compound 143, (1R,4r)-4-((R)-1-(((R)-4-(((R)-2-((1S,5S)-9-azabicyclo[3.3.1]nonan-9-yl)-1-(1-methyl-1H-pyrazol-4-yl)ethyl)amino)-6-phenyl-5,6,7,8-tetrahydroquinazolin-2-yl)(methyl)amino)propyl)cyclohexane-1-carboxylic acid] |  | 100.784 % of ANP | 920 | 104.085 % of ANP | 694 |
